# Molecular target: T1, UCP2 (mouse mitochondrial uncoupling protein 2) (Mus musculus, UniProt P70406)
# T1 sequence (P70406 14-309): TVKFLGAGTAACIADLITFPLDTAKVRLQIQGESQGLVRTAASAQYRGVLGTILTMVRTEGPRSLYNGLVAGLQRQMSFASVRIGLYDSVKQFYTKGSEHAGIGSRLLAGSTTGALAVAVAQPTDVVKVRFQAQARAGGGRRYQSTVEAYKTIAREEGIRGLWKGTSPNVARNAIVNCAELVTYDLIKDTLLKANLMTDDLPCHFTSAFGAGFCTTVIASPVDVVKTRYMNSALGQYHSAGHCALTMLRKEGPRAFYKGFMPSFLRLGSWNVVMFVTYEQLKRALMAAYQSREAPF
# Assay: proton translocation in liposomes
# Assay type: biochemical
# Details: fatty-acid activated; inhibitor
smiles,measurement,value
Nc1nc2c(ncn2[C@@H]2O[C@H](COP(=O)(O)OP(=O)(O)O)[C@@H](O)[C@H]2O)c(=O)[nH]1 [GDP],proton translocation in liposomes,it showed fatty-acid activated and GDP-inhibited proton translocation activity

# Reference: paper PMC3150631 (Nature, 2011)
